According to patent EP4745139A1, “COMPOUND FOR TREATING AND PREVENTING RESPIRATORY SYNCYTIAL VIRUS INFECTION DISEASES” (CSPC Zhongqi Pharmaceutical Technology (Shijiazhuang) Co., …, priority 2023, dated 2025):

Assays:
[1] = Pharmacokinetic experiment in mice after intragastric administration (plasma and lung tissue, LC/MS/MS); assay type: in vivo; conditions: ICR, mouse, intragastric administration at 20 mg/kg; for concentration at 6 h: lung, oral, read-out: Lung tissue drug concentration at 6 h; for half-life: plasma, po
Experimental: The compounds of the present invention for intragastric administration were dissolved in a suitable solvent to form a clear solution or suspension.
Administration mode and dosage: The compounds of the present invention were administered intragastrically at 10 mg/kg or 20 mg/kg.
Number of animals: 3 ICR mice per group for intragastric administration.
Sample collection: For the intragastric administration group, 100 µL of blood was collected (using pre-heparinized 100 µL Capillary Blood Collection Tubes) from the orbital vein of mice at 0.25 h, 0.5 h, 1 h, 2 h, 4 h, and 6 h after administration and placed in heparin sodium anticoagulant tubes. Mice plasma samples were obtained by centrifugation at 3000 g for 10 minutes within 2 hours. For the intragastric administration group, clean blood was collected at 6-hour time point and then lung tissues were collected.
Sample treatment: Plasma and lung tissue homogenates were subjected to protein precipitation with methanol at a certain ratio, and the supernatant was taken and diluted with 50% methanol-water at a certain ratio for sample loading.
Sample detection: The drug concentration in plasma was detected by the LC/MS/MS method, and the drug-time curve was plotted. Pharmacokinetic parameters (such as T1/2(h)/AUC0-t) were calculated by non-compartmental model statistical moments to describe the pharmacokinetic behavior of the compounds in mice after administration.
Data processing: Pharmacokinetic parameters were calculated by WinNonlin.

RSV strain A2 = assay: Antiviral detection test against RSV strain A2 based on ELISA method (Hep-2 cells); assay type: cell-based, Respiratory Syncytial Virus; conditions: for IC50: human respiratory syncytial virus, RSV A2 virus strain, Hep-2 cells, ELISA OD450; for AK0529 IC50 / IC50 of the compounds of the present invention: ratio of IC50 values against RSV A2 virus strain, control compound AK0529
Experimental: Test Example 1: Antiviral detection test of small molecules against RSV strain A2 based on ELISA method
• Source of cell line: Nanjing Kebai Biotechnology Co., Ltd. • Cell type: human laryngeal carcinoma epithelial cells Hep-2
• 96-well culture plate (Cat.No. 3610, Corning Costar); • Fetal bovine serum (Cat.No. 10099-141, GIBCO); • DMEM medium (Cat.No. 11995500BT, GIBCO); • Envision 2104 microplate reader.
• 1. Day 1: The Hep-2 cells were seeded into a 96-well plate at a density of 1×10^4 cells/well; • 2. Day 2: • A. Compound dilution: The compound in the first well was diluted to 9 µM, and 3-fold gradient dilution was performed, with a total of 10 gradients; • B. The Hep-2 cell plate prepared on Day 1 was taken out from the incubator, the supernatant was discarded, and 100 PFU/well/50 µL of the RSV A2 virus was added to each well. The plate was stood at 37°C in a 5% CO2 incubator for 2 hours, the supernatant was aspirated and discarded, and then 100 µL of the gradient-diluted compound or DMEM maintenance medium containing 2% FBS was added to each well; • 3. Day 5: • A. Add fixative: The gradient-diluted compound or medium was discarded from the wells, and 100 µL/well of fixative (4% paraformaldehyde) was added. The plate was stood at room temperature for 10 minutes, and then was washed once with 250 µL PBS; • B. 100 µL/well of a blocking solution was added, and the plate was incubated at 37°C in a 5% CO2 incubator for 30 minutes; • C. After incubation, the detection antibody (Anti RSV Fpro) was added at 0.3 µg/50 µL/well (6 µg/mL), and the plate was incubated at 37°C in a 5% CO2 incubator for 1 hour; • D. After incubation, the HRP secondary antibody was added (diluted 10,000-fold with 0.2% BSA), and the plate was incubated at 37°C in a 5% CO2 incubator for 1 hour; • E. After incubation, the wells were washed for 4 times with PBST, 250 µL/well, each washing was allowed to stand for 5 minutes, and the liquid in the wells was shaken off after completion of the washing; • F. 100 µL/well of a development solution was added, the plate was incubated at room temperature in the dark for 20 minutes, and 50 µL/well of a reaction termination solution was added. The plate was tapped gently to mix the solutions, and the absorbance at 450 nm was measured using the microplate reader. • 4. Data analysis • Inhibition rate of the compound against the virus = 100% - (SC - CC)/(VC - CC) × 100% • SC: OD450 value of the sample (cells + test compound + virus) • CC: OD450 value of the normal growing cell control (cells) • VC: OD450 value of the virus growth control (cells + virus)
The software Graphpad Prism 6 was used, and the calculation formula XY-analysis/Nonlinear regression (curve fit)/Dose response-Inhibition/log (inhibition) vs. response-Variable slope (four parameters) was adopted to fit the IC50 curve and calculate the IC50 value.

| SMILES | concentration at 6 h [1] [ng/g] | half-life [1] [min] | IC50 (RSV strain A2) [nM] | AK0529 IC50 / IC50 of the compounds of the present invention (RSV strain A2) |
| --- | --- | --- | --- | --- |
| Cc1ccc2nc(N3CCS(=O)(=NC4CC4)c4ccccc4C3)nc(N3CC4C(N)C4C3)c2c1 (centres unmarked) [Example 4-8, 4-(4-(6-amino-3-azabicyclo[3.1.0]hexan-3-yl)-6-methylquinazolin-2-yl)-1-(cyclopropylimino)-2,3,4,5-tetrahydro-benzo[f][1,4]thiazepine-1-oxide] | 25300 | 648 | – | – |
| Cc1ccc2nc(N3CCS(=O)(=NC4CC4)c4ccccc4C3)nc(N3CC(CN)C3)c2c1 (centres unmarked) [Example 4-9, 4-(4-(3-(aminomethyl)azetidin-1-yl)-6-methylquinazolin-2-yl)-1-(cyclopropylimino)-2,3,4,5-tetrahydro-benzo[f][1,4]thiazepine-1-oxide] | 5920 | 373 | < 10 | – |
| Cc1ccc2nc(N3CCS(=O)(=NC4CC4)c4ccccc4C3)nc(N3CC[C@@H](N)C3)c2c1 (some centres unmarked) [Example 4-12] | 29700 | 386 | < 10 | – |
| Cc1ccc2nc(N3CCS(=O)(=NC4CC4)c4ccccc4C3)nc(NCC3(N)COC3)c2c1C (centres unmarked) [Example 4-15, 4-(4-(((3-aminooxetan-3-yl)methyl)amino)-5,6-dimethylquinazolin-2-yl)-1-(cyclopropylimino)-2,3,4,5-tetrahydro-benzo[f][1,4]thiazepine-1-oxide] | 5130 | 96.6 | – | – |
| Cc1ccc2nc(N3CCS(=O)(=NC4CC4)c4ccccc4C3)nc(N[C@H]3CNC[C@@H]3F)c2c1 (stereo partly drawn) [Example 4-24, 1-(cyclopropylimino)-4-(4-(((3S,4S)-4-fluoropyrrolidin-3-yl)amino)-6-methylquinazolin-2-yl)-2,3,4,5-tetrahydrobenzo[f][1,4]thiazepine-1-oxide] | 15400 | 269 | < 10 | ratio ≥20 |
| Cc1ccc2nc(N3CCS(=O)(=NC4CCOC4)c4ccccc4C3)nc(N3CC[C@@H](N)C3)c2c1 (some centres unmarked) [Example 4-43] | 19200 | 140 | < 10 | – |
| Cc1ccc2nc(N3CCS(=O)(=NC4CCOC4)c4ccccc4C3)nc(N3CC[C@H](N)C3)c2c1 (some centres unmarked) [Example 4-67] | 8220 | 130 | < 10 | – |
| Cc1ccc2nc(N3CCS(=O)(=NCC4CCCO4)c4ccccc4C3)nc(N3CC[C@H](N)C3)c2c1 (some centres unmarked) [Example 4-70] | – | – | < 10 | – |
| Cc1ccc2nc(N3CCS(=O)(=NCC4CCOC4)c4ccccc4C3)nc(N3CC[C@H](N)C3)c2c1 (some centres unmarked) [Example 4-72] | – | – | < 10 | – |

Continued, values first:

| concentration at 6 h [1] [ng/g] | half-life [1] [min] | IC50 (RSV strain A2) [nM] | AK0529 IC50 / IC50 of the compounds of the present invention (RSV strain A2) | SMILES |
| --- | --- | --- | --- | --- |
| 75800 | 317 | < 10 | ratio ≥20 | NC1CN(c2nc(N3CCS(=O)(=NC4CC4)c4ccccc4C3)nc3ccc(C(F)F)cc23)C1 (centres unmarked) [Example 4-17, 4-(4-(3-aminoazetidin-1-yl)-6-(difluoromethyl)quinazolin-2-yl)-1-(cyclopropylimino)-2,3,4,5-tetrahydro-benzo[f][1,4]thiazepine-1-oxide] |
| 53100 | – | < 10 | – | N[C@H]1CCN(c2nc(N3CCS(=O)(=NC4CC4)c4ccccc4C3)nc3ccc(C(F)F)cc23)C1 (stereo partly drawn) [Example 4-62, 4-(4-((S)-3-aminopyrrolidin-1-yl)-6-(difluoromethyl)quinazolin-2-yl)-1-(cyclopropylimino)-2,3,4,5-tetrahydro-benzo[f][1,4]thiazepine-1-oxide] |
| – | – | < 10 | – | Cc1ccc2nc(N3CCS(=O)(=NCCS(C)(=O)=O)c4ccccc4C3)nc(N3CC[C@H](N)C3)c2c1 (some centres unmarked) [Example 4-65] |
| – | – | < 10 | – | N[C@H]1CCN(c2nc(N3CCS(=O)(=NCCCO)c4ccccc4C3)nc3ccc(C(F)F)cc23)C1 (some centres unmarked) [Example 4-66] |
| – | – | < 10 | – | COCCCN=S1(=O)CCN(c2nc(N3CC[C@H](N)C3)c3cc(C)ccc3n2)Cc2ccccc21 (some centres unmarked) [Example 4-71] |
| – | – | < 10 | – | COCCCN=S1(=O)CCN(c2nc(N3CC[C@@H](N)C3)c3cc(C)ccc3n2)Cc2ccccc21 (some centres unmarked) [Example 4-73] |
